System: T cells stimulated by allogeneic DCs
Assay: Allogeneic T-cell response: lymphocyte proliferation induced by allogeneic dendritic cells, 3[H]-thymidin incorporation
Assay type: cell-based, human
Details: 6 days
Description: DCs were generated from CD14-positive blood monocytes as previously described ("Schuler G. and N. Romani", 1997, Adv. Exp. Med. Biol. 417:7-13). Briefly, peripheral blood mononuclear cells of an HLA-typed healthy donor were separated by density gradient centrifugation and CD14-positive monocytes were isolated by adherence to culture dishes. Non-adherent cells were discarded. After culture of monocytes in the presence of human rGM-CSF (666 Units/ml) and rIL-4 (1000 Units/ml) for 7 days, rTNF-α (10 ng/ml) was added for an additional 2 days to induce maturation of DC. Characterization of DC phenotype was performed by flow cytometry using the following mouse monoclonal antibodies: anti-CD 14-FITC, anti-HLA-DR-FITC, anti-CD 1a-PE, anti-CD86-PE, and anti-CD83-PE (BD Biosciences Heidelberg, Germany). DCs were kept in liquid nitrogen until use.
• (a) Allogeneic T-cell response. DCs were infected with recombinant IDO-adeno-GFP (DC-IDO-GFP), IDO-adeno (DC-IDO) or with control adenoviruses (DC-adeno) at a MOI (multiplicity of infection) up to 500 for 2 days. […] After 5 days, ^3[H]-thymidin was added for 12hrs and the number of counts (counts per minute = cpm) determined in a (3-counter (Inotech Biosystems, Lansing, MI). In order to verify whether IDO expression or adenovirus infection harm the DCs, 10^5 cells were infected with IDO-adeno-GFP, IDO-adenovirus, or adenovirus only at a stepwise decreasing MOI (500, 250, 125, ........ 3.9) and cell viability was measured in FACS following double staining with 7-AAD and anti-CD83 antibody-PE. The percentage of dead cells never exceeded 30% for any MOI following IDO-adeno-GFP- or IDO-adeno-infection and 40% following adenovirus(control)-infection. […] After 2 days, cell proliferation was assessed by measuring ^3[H]-thymidin incorporation (cpm) as described. • (c) Tryptophan metabolite titration curves. […] After 2 days, ^3[H] thymidin was added and the number of counts recorded. […] After another 2 days, ^3[H] thymidin was added and cpm determined. […]

## Nc1ccccc1C(=O)CC(N)C(=O)O (centres unmarked) [kynurenine]
  inhibition of proliferation of T cells stimulated by allogeneic DCs (in words): completely inhibit the proliferation of T cells
Homo sapiens, T-cell, 144 h, 3[H]-thymidin incorporation, read-out: 50% inhibition (I50) of proliferation of T cells stimulated by allogeneic DCs
  IC50: 157 µM

Source: patent EP1369114A1, “Use of tryptophan metabolites as pharmaceutical agents” (Terness, Peter, Priv. Doz. Dr., priority 2002, dated 2003)
